Source: patent US12714714B2, “Combination therapy for treating executive function disorders” (Anaka Pharmaceuticals, Inc., priority 2021, dated 2026)
“And” between values parts separate entries of the source, which are not always exact repeats. Equal values may be shown once.

Tests used:
Severe ADHD = test: Case study A: (Example 3); assay type: in vivo, human
Description: (§1) The combination of lacosamide and oxcarbazepine has been administered to three additional patients with various symptoms associated with executive function disorder. The combination of lacosamide and oxcarbazepine was successful in alleviating different symptoms of executive function disorder.

[1] = system: children who take methylphenidate; settings: cited from earlier work
[2] = system: patients suffering from ADHD; test: Determination of clinically effective dose, lacosamide monotherapy vs combination therapy (Example 1); assay type: in vivo, human; settings: for Clinically effective dose of lacosamide: in monotherapy vs in combination therapy with oxcarbazepine
Protocol: (§2) The effects of lacosamide monotherapy were tested in three patients (two boys; and one child) suffering from ADHD over the period of 6 months. After the period of 6 months, the treatment was discontinued for 45 days. Next, the three patients were treated with a combination of lacosamide and oxcarbazepine for a period of 3 months. The results of monotherapy and combination therapy were compared.
(§3) Patients were monitored clinically every week, during the whole duration of the study. They were also monitored on their pedagogic condition and evolution: before any treatment, mid-term and by the end of the lacosamide monotherapy and combination treatment. In addition, the patients were monitored neuropsychologicaly through the administration of different tests, pre- and post-treatment. A basal measure of their executive capabilities was established before any treatment.
(§4) Initially, a dose of 50 mg/12 hrs of lacosamide was administered to every patient. Through the study, the dose of lacosamide was increased (by 100 mg per week) to […] for every patient, following clinical response (on attention capacity, sleep, tiredness, mood stability, comprehension and general cognitive improvement).
Initially, a dose of 50 mg/12 hrs of lacosamide and a dose of 300 mg/12 hrs of oxcarbazepine was administered to every patient. Through the study, the dose of lacosamide was increased (by 100 mg per week) to 200 mg/12 hrs for every patient, following clinical response (attention capacity, sleep, tiredness, mood stability, comprehension and general cognitive improvement). […] The dose for oxcarbazepine was increased in week 7 to 450 mg/12 hrs for every patient, maintaining the previously reached respective doses for lacosamide.
Starting from this initial dose (50 mg/12 hs), the dose of lacosamide was adjusted to reflect clinically effective dose, based on clinical signs. Lacosamide was initially raised by 100 mg/24 hs in two takes. The highest dose of lacosamide was 400 mg/24 hs. In the combination therapy, oxcarbazepine was raised from 600 mg to 900 mg for all participants after 6 weeks, regardless of their lacosamide dosage.
The final dosage of lacosamide and oxcarbazepine was established based on patients' clinical results for executive dysfunction and the neurophysiological symptoms (e.g. hyperactivity, enuresis, and lethargy).

[3] = system: patients suffering from ADHD; test: Clinical evolution under treatment, weekly clinical and pedagogic monitoring (Example 1); assay type: in vivo, human
Protocol: as §2, §3
The treatment was delivered twice a day and went on for at least 3 months.
as §4
Initially, a dose of 50 mg/12 hrs of lacosamide and a dose of 300 mg/12 hrs of oxcarbazepine was administered to every patient. Through the study, the dose of lacosamide was increased (by 100 mg per week) to 200 mg/12 hrs for every patient, following clinical response (attention capacity, sleep, tiredness, mood stability, comprehension and general cognitive improvement). In response to clinical presentation of all three patients, the dose of lacosamide was decreased to 100 mg/12 hrs and maintained thereafter. The dose for oxcarbazepine was increased in week 7 to 450 mg/12 hrs for every patient, maintaining the previously reached respective doses for lacosamide.

[4] = system: patients suffering from ADHD; test: TONI-2 nonverbal reasoning test (Example 1); assay type: in vivo, human
Description: as §3
(§5) The results of neuropsychological tests for lacosamide monotherapy and lacosamide and oxcarbazepine combination therapy were evaluated.

[5] = system: patients suffering from ADHD; test: Conners' Continuous Performance Test CPT-2 (Example 1); assay type: in vivo, human
Description: as §3
The results of neuropsychological tests for lacosamide monotherapy and lacosamide and oxcarbazepine combination therapy were evaluated. […] The other patient had similar results for monotherapy and combination treatment.

[6] = system: patients suffering from ADHD; test: WCST (Example 1); assay type: in vivo, human
Description: as §3, §5

[7] = system: patients suffering from ADHD; test: Stroop test (Example 1); assay type: in vivo, human
Description: as §3, §5

[8] = system: voltage-gated sodium channels; settings: cited from earlier work
[9] = system: AMPA, kainate, NMDA, GABAA, GABAB, dopaminergic, serotonergic, adrenergic, muscarinic or cannabinoid receptors; settings: cited from earlier work
[10] = system: potassium or calcium currents; settings: cited from earlier work
[11] = system: reuptake of norepinephrine, dopamine, and serotonin; settings: cited from earlier work
GABA transaminase = GABA transaminase (Homo sapiens, UniProt P80404); settings: cited from earlier work
Chain of GABA transaminase (P80404 29-500, species assumed): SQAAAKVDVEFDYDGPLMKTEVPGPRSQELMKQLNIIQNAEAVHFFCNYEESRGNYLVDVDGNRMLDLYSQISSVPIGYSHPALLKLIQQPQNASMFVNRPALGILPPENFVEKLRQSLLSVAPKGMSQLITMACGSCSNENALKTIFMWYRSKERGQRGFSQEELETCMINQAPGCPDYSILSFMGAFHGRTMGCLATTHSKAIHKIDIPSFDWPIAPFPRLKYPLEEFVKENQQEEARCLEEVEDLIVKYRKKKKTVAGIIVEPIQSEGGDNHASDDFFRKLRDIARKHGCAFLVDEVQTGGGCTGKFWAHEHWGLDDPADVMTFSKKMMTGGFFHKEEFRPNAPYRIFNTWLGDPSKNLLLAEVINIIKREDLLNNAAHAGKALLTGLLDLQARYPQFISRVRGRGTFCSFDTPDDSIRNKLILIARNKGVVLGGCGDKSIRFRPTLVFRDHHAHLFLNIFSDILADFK

Severe autism (Level 3) = test: Case Study C: (Example 3); assay type: in vivo, human
Description: as §1

[12] = patient 001, October 2020 = lacosamide monotherapy, December 2020 = combination therapy
[13] = patient 002, October 2020 = lacosamide monotherapy, December 2020 = combination therapy
[14] = patient 003, October 2020 = after 6 months lacosamide alone, December 2020 = after 3 months combined therapy
[15] = patient 003, table: December 2020, combined therapy, text b168: monotherapy vs combined therapy

Nc1nnc(-c2cccc(Cl)c2Cl)c(N)n1 [Lamotrigine]
Neurophysiological and Neuropsychological symptoms (Severe ADHD): combined therapy. This was not accomplished | lasting improvement in treating subject's symptoms, drugs received prior to therapy used in this study (Severe ADHD): None showed lasting improvement in treating

COC(=O)C(c1ccccc1)C1CCCCN1 (stereo not drawn) [Methylphenidate]
lasting improvement in treating subject's symptoms, drugs received prior to therapy used in this study (Severe ADHD): None showed lasting improvement in treating | share of children who develop symptoms of obsessive-compulsive behaviour [1]: one third

CCCC(CCC)C(=O)O [Valproic Acid]
lasting improvement in treating subject's symptoms, drugs received prior to therapy used in this study (Severe ADHD): None showed lasting improvement in treating

COC[C@@H](NC(C)=O)C(=O)NCc1ccccc1 [lacosamide, (2R)-2-(acetylamino)-N-benzyl-3-methoxypropanamide]
clinically effective dose of lacosamide in monotherapy ([2]; 2 patients): 600 mg per day | Clinically effective dose of lacosamide ([2]; Patient 1): 600 mg/day | Clinically effective dose of lacosamide ([2]; Patient 2): 600 mg/day | Clinically effective dose of lacosamide ([2]; Patient 3): 350 mg/day | clinically effective dose of lacosamide in monotherapy ([2]; one patient): 350 mg | mood instability (aggressive behaviour towards others, deliberately contained anger, sadness) ([3]; ADHD patients): only partially regressed | cognitive disabilities ([3]; Case 001): improved many cognitive disabilities | dysphasia, and extreme impulsiveness ([3]; Case 001): remained unchanged | pedagogic evolution (Comprehensive Reading) ([3]; Case 002): never obtained | ability to speak ([3]; Cases 002 and 003): unaffected | cognitive disability ([3]; Cases 002 and 003): improved under lacosamide alone, but the degree of the disability never really disappeared | hyperactivity regulation (severe hyperkinesia) ([3]; the one of 3 ADHD patients with hyperkinesia): did not improve | enuresis episodes ([3]; the two patients that suffered from this symptom): partially stopped | lethargic situations ([3]; two patients with absence of energy and tense tiredness): disappeared | non-verbal reasoning capacity ([4]; Case 003, after 6 months Lacosamide monotherapy vs after combined therapy): 95 points | TONI-2 Nonverbal Reasoning Ability, Level (CI) [4, 12]: CI-111 | TONI-2 Nonverbal Reasoning Ability, Severity Range [4, 12]: 17/55 | TONI-2 Nonverbal Reasoning Ability, Level (CI) [4, 13]: CI-104 | TONI-2 Nonverbal Reasoning Ability, Severity Range [4, 13]: 28/55 | TONI-2 Nonverbal Reasoning Ability, Level (CI) [4, 14]: CI-95 | TONI-2 Nonverbal Reasoning Ability, Severity Range [4, 14]: 19/55 | CPT-2-c Level [5, 12]: 1 | CPT-2-c impulsivity indicators (Severity Range) [5, 12]: No | CPT-2-o Level [5, 12]: Clinical | CPT-2-o Severity Range, score [5, 12]: 76.92% | CPT-2-o inattention indicators [5, 12]: 6 | CPT-2-o indicators within limitations in surveillance [5, 12]: 2 indicators | CPT-2-o Actual Interpretation ([5]; patient 001, table: December 2020, combination therapy, text b159: first vs second evaluation): Severe Impairment | CPT-2-c Level [5, 13]: 2 | CPT-2-c impulsivity indicators (Severity Range) [5, 13]: 1 impulsivity | CPT-2-o Level [5, 13]: Non | CPT-2-o Severity Range, score [5, 13]: 37.01% | CPT-2-o inattention indicators [5, 13]: 2 inattention | CPT-2-c Level [5, 14]: 2 | CPT-2-c impulsivity indicators (Severity Range) [5, 14]: 1 impulsivity | CPT-2-o Level [5, 14]: Clinical | CPT-2-o Severity Range, score [5, 14]: 50% | CPT-2-o inattention indicators [5, 14]: (6 inattention | WCST Cognitive flexibility, Level [6, 12]: 1 | WCST Cognitive flexibility, persistent errors [6, 12]: 24 persistent | WCST Reasoning (Abstraction Categorization), Level [6, 12]: 2 | WCST Reasoning (Abstraction Categorization), categories completed [6, 12]: 3 categories | WCST Cognitive flexibility, Level [6, 13]: 0 | WCST Cognitive flexibility, persistent errors [6, 13]: 5 persistent | WCST Reasoning (Abstraction Categorization), Level [6, 13]: 0 | WCST Reasoning (Abstraction Categorization), categories completed [6, 13]: 8 categories | WCST Cognitive flexibility, Level [6, 14]: 2 | WCST Cognitive flexibility, persistent errors [6, 14]: 23 persistent | WCST Reasoning (Abstraction Categorization), Level [6, 14]: 2 | WCST Reasoning (Abstraction Categorization), categories completed [6, 14]: 4 categories | WCST Cognitive flexibility, interpretation [6, 15]: Slight | WCST Reasoning (Abstraction Categorization), interpretation [6, 15]: Slight Impairment | Stroop-c Level [7, 12]: 1 | Stroop-c Nominative capacity, Severity Range [7, 12]: 43/100 | Stroop-c/p Level [7, 12]: 1 | Stroop-c/p Resistance to Perseveration, Severity Range [7, 12]: 18/100 | Stroop-p Level [7, 12]: 2 | Stroop-p Nominative capacity, Severity Range [7, 12]: 51 and 51/100 | Stroop-p Actual Interpretation ([7]; patient 001, table: December 2020, combination therapy, text b160: before vs after): Slight Impairment | Stroop-c Level [7, 13]: 3 | Stroop-c Nominative capacity, Severity Range [7, 13]: 40/100 | Stroop-c/p Level [7, 13]: 2 | Stroop-c/p Resistance to Perseveration, Severity Range [7, 13]: 30/100 | Stroop-p Level [7, 13]: 4 | Stroop-p Nominative capacity, Severity Range [7, 13]: 32/100 | Stroop-c Level [7, 14]: 2 | Stroop-c Nominative capacity, Severity Range [7, 14]: 51/100 | Stroop-c/p Level [7, 14]: 3 | Stroop-c/p Resistance to Perseveration, Severity Range [7, 14]: 21/100 | Stroop-p Level [7, 14]: 3 | Stroop-p Nominative capacity, Severity Range [7, 14]: 51/100 | fast inactivation of voltage-gated sodium channels [8]: without affecting | slow inactivation of voltage-gated sodium channels [8]: enhances | effect on AMPA, kainate, NMDA, GABAA, GABAB or dopaminergic, serotonergic, adrenergic, muscarinic or cannabinoid receptors [9]: does not affect | block of potassium or calcium currents [10]: does not block | modulation of the reuptake of neurotransmitters including norepinephrine, dopamine, and serotonin [11]: does not modulate | inhibition of GABA transaminase (GABA transaminase): does not inhibit

NC(=O)N1c2ccccc2CC(=O)c2ccccc21 [oxcarbazepine, 5-oxo-6H-benzo[b][1]benzazepine-11-carboxamide]
aggressive behavior and lack of interactivity with other members of the household (Severe autism (Level 3)): attention. They maintained aggressive | delivery of the desired therapeutic result (Severe autism (Level 3)): Oxcarbazepine alone was not sufficient to | hyperkinesia and impulsiveness (Severe autism (Level 3)): Minor improvement to subject's hyper- | sleeping pattern (Severe autism (Level 3)): instability remained in sleeping pattern | way they behaved during awake moments, quality of their day's attention (Severe autism (Level 3)): not approve in the way they behaved during
